{
  "source": "ChEMBL document CHEMBL5465560",
  "about": "“Selectivity Literature for EUbOPEN Chemogenomic Library” (2024)",
  "key": {"[1]": {"biological_target": "T1, MAP/microtubule affinity-regulating kinase 4 (Homo sapiens) (UniProt Q96L34)", "T1 sequence (whole entry)": "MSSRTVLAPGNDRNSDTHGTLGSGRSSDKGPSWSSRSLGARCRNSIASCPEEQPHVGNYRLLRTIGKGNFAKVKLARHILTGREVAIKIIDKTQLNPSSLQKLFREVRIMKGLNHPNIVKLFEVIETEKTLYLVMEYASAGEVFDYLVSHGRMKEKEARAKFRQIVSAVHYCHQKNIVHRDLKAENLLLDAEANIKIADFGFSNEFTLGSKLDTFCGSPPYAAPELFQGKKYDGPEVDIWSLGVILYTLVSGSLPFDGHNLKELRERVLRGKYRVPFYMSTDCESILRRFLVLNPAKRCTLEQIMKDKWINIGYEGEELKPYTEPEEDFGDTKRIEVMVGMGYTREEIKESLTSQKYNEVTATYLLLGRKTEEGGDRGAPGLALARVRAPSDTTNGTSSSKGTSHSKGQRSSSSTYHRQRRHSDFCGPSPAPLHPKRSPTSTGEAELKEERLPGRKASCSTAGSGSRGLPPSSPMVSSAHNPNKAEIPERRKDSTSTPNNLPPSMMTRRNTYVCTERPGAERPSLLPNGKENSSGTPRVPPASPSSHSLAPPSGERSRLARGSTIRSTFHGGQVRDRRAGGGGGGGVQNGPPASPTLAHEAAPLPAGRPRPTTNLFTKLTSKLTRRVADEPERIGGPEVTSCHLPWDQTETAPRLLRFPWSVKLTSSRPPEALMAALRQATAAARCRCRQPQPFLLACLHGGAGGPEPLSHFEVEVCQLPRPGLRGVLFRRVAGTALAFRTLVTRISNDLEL", "assay": "Selectivity interaction (Kinase panel (DSF assay)) EUB0001558a MARK4"}, "[2]": {"biological_target": "T2, Serine/threonine-protein kinase tousled-like 1 (Homo sapiens) (UniProt Q9UKI8)", "T2 sequence (whole entry)": "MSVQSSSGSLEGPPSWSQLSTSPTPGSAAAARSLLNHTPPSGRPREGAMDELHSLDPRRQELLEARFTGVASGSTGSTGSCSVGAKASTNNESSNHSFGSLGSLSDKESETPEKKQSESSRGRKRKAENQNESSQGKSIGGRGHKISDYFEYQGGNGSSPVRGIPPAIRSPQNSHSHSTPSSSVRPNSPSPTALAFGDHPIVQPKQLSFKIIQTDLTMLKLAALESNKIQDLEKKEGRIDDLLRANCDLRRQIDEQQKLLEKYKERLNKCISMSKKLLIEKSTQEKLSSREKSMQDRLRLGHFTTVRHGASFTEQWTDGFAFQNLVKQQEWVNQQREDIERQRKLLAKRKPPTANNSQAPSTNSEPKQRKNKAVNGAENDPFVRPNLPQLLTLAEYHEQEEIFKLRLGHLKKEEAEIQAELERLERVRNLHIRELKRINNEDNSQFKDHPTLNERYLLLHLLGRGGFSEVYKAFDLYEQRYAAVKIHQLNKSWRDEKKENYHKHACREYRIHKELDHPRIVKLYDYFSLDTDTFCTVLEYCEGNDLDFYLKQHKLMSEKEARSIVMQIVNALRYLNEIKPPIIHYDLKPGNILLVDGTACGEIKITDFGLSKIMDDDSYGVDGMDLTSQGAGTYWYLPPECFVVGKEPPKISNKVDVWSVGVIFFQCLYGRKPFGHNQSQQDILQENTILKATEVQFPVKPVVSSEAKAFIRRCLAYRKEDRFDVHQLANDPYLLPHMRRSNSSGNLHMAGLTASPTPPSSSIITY", "assay": "Selectivity interaction (KinomeScan (DiscoverX)) EUB0000045b TLK1"}, "[3]": {"biological_target": "T3, Dual specificity mitogen-activated protein kinase kinase 6 (Homo sapiens) (UniProt P52564)", "T3 sequence (whole entry)": "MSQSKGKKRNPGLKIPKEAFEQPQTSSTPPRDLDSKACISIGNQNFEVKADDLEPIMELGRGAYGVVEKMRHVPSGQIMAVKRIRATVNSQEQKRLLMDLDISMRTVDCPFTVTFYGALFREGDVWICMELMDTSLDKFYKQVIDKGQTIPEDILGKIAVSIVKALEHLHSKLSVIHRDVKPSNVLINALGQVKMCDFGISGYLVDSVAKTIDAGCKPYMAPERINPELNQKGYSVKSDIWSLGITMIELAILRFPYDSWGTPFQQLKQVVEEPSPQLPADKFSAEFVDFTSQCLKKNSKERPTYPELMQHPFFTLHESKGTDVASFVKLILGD", "assay": "Selectivity interaction (KinomeScan (DiscoverX)) EUB0000695a MAP2K6", "settings": "at 100 nM"}, "[4]": {"biological_target": "Serine/threonine-protein kinase B-raf (Homo sapiens) (UniProt P15056)", "sequence (P15056 whole entry)": "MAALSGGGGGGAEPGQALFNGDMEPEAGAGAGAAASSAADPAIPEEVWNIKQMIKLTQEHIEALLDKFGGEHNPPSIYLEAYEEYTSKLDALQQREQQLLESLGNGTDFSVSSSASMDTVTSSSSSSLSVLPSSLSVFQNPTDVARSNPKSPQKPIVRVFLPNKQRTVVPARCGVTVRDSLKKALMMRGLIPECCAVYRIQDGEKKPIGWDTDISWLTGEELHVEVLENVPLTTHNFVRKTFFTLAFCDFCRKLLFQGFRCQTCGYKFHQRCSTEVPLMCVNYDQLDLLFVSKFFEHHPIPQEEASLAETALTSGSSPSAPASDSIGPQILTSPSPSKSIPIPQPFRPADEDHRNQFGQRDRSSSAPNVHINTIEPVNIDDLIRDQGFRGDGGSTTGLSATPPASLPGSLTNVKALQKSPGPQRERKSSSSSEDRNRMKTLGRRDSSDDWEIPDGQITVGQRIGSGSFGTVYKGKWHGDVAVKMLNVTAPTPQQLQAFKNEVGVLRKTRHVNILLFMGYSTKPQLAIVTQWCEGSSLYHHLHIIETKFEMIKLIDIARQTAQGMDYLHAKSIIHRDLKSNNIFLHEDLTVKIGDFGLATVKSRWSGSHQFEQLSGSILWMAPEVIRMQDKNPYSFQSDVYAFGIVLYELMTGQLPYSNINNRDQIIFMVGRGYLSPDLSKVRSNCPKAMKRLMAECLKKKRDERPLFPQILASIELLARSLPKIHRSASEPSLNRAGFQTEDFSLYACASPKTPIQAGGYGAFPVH", "assay": "Selectivity interaction (SelectScreen profiling (Invitrogen)) EUB0000607a BRAF", "settings": "at 2 µM"}, "[5]": {"biological_target": "Serine/threonine-protein kinase Nek6 (Homo sapiens) (UniProt Q9HC98)", "sequence (Q9HC98 whole entry)": "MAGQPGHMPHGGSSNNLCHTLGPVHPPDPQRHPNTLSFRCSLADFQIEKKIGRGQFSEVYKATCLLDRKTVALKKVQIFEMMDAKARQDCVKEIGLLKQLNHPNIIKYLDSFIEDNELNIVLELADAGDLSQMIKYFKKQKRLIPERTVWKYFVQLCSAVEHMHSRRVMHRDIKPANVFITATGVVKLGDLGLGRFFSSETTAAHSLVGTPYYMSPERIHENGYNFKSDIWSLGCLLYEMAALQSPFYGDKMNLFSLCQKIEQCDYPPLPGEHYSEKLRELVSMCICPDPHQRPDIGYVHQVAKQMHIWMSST", "assay": "Selectivity interaction (KinomeScan (DiscoverX)) EUB0000607a NEK6", "settings": "at 10 µM"}, "[6]": {"biological_target": "Protein arginine N-methyltransferase 1 (Homo sapiens, UniProt Q99873)", "sequence (Q99873 whole entry, looked up)": "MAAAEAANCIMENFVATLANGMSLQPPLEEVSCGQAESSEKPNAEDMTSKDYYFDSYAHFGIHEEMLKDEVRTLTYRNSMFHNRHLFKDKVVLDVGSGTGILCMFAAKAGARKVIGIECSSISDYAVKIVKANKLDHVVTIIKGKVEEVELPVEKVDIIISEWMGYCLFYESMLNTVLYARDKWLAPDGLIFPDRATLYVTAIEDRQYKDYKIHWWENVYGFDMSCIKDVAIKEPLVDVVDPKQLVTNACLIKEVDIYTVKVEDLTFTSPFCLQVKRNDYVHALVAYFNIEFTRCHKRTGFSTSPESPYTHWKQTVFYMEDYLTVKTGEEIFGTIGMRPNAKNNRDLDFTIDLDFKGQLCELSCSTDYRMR", "assay": "Selectivity interaction (Methyltransferase screen (radiometric assays, panel of 8 PRMTs, 21 protein lysine methyltransferases, 3 DNA methyltransferases, and one RNA methyltransferase)) EUB0000272b PRMT1"}},
  "data": [
    {"smiles": "CC(C)(O)[C@H](F)CN1Cc2cc(NC(=O)c3cnn4cccnc34)c(N3CCOCC3)cc2C1=O", "values": [
      {"measurement": "dTM", "setting": "[1]", "value": 1.6, "unit": "K"}
    ]},
    {"smiles": "C=CC(=O)Nc1cc(-n2c(=O)ccc3cnc4ccc(-c5ccc(NS(C)(=O)=O)cc5)cc4c32)ccc1C", "values": [
      {"measurement": "% of control", "setting": "[2]; at 1 µM", "value": 86, "unit": "%"},
      {"measurement": "% of control", "setting": "[2]; at 10 µM", "value": 96, "unit": "%"}
    ]},
    {"smiles": "Cc1cc(F)c(C(=O)Nc2cccc(-c3nncn3C(C)C)n2)cc1-n1cnc(C2CC2)c1", "values": [
      {"measurement": "% of control", "setting": "[3]", "value": 100, "unit": "%"}
    ]},
    {"smiles": "CNC(=O)Nc1ccc(-c2nc(N3CC4CCC(C3)O4)c3cnn(C4CCC5(CC4)OCCO5)c3n2)cc1", "values": [
      {"measurement": "% of inhibition", "setting": "[4]", "value": 6, "unit": "%"},
      {"measurement": "% of control", "setting": "[5]", "value": 90, "unit": "%"}
    ]},
    {"smiles": "Cc1cc(C)cc([C@H]2c3cc(C)ccc3NC(=O)CN2C(=O)c2ccc(Br)s2)c1", "values": [
      {"measurement": "% of activity", "setting": "[6]; at 1 µM", "value": 98.7, "unit": "%"},
      {"measurement": "% of activity", "setting": "[6]; at 10 µM", "value": 101, "unit": "%"}
    ]}
  ]
}
